Results from paper PMC7037321, “Development and Validation of Analytical Method for SH-1242 in the Rat and Mouse Plasma by Liquid Chromatography/Tandem Mass Spectrometry” (Molecules, 2020).

Experiments:
[1] = Pharmacokinetic study after single intravenous administration to rats; format: in vivo; settings: male, Sprague-Dawley, rat, plasma, single intravenous 0.1 mg/kg, n = 4, mean ± S.D.
Description: (§1) To test the applicability of the current assay to pharmacokinetic studies, in preclinical animal species, male Sprague-Dawley rats (weighing 250–270 g) or ICR mice (weighing 18–20 g) were used. Prior to the experiment, animals fasted for 12 h with free access to water. SH-1242 was dissolved in a dosing vehicle consisting of dimethyl sulfoxide, PEG400 (Sigma-Aldrich, St. Louis, MO, USA), and normal saline in a ratio of 1:6:3 (v/v/v%), and intravenously bolus-injected to the right femoral vein at 2 mL/kg for rats or to the tail vein at 5 mL/kg for mice. In this study, the intravenous dose of SH-1242 was set at 0.1 mg/kg for both species. Blood samples (approximately 150 µL each) were collected in heparinized tubes via the right femoral artery at 2, 5, 15, 30, 60, 90, 120, 180, 240, 360, and 480 min after the administration to rats (n = 4) and via the retro-orbital plexus at 2, 5, 15, 30, 60, or 120 min after the administration to mice (n = 3 for each time point). For the mouse study, a blood sample was obtained once from each animal, and the animal was sacrificed after collection. Plasma was obtained by centrifuging blood samples at 16,100 g for 5 min at 4 °C and then processed, as described in Section 3.5. The plasma concentration versus time data was analyzed using the non-compartmental method in the WinNonlin software (WinNonlin Professional 5.0.1.; Pharsight, Mountain View, CA, USA) to calculate essential kinetic parameters, such as terminal phase half-life (T1/2), systemic clearance (CL), and steady-state volume of distribution (Vss).

[2] = Stability of QC samples in rat plasma under handling and storage conditions; format: in vitro ADME; settings: n = 3; for Accuracy (RE%), freeze-thaw stability / Mean concentration, freeze-thaw stability: 3 freeze-thaw cycles; for Accuracy (RE%), long term stability / Mean concentration, long term stability: 4 °C for 2 weeks; for Accuracy (RE%), autosampler stability / Mean concentration, autosampler stability: processed sample, 4 °C for 3 days; for Accuracy (RE%), benchtop stability / Mean concentration, benchtop stability: room temperature (25 °C) for 24 h
Description: (§2) Stock solutions of SH-1242 and IS were prepared at the concentrations of 1 mg/mL and 500 ng/mL in methanol, respectively. A serial dilution of the SH-1242 stock solution with methanol was carried out to obtain a set of SH-1242 standard solutions, and 5 µL aliquots of these standard solutions were added to 45 µL of blank plasma to prepare SH-1242 calibration standards at concentrations of 1, 2, 5, 10, 20, 50, 100, 200, 500, and 1000 ng/mL for rat plasma and 2, 5, 10, 20, 50, 100, 200, 500, and 1000 ng/mL for mouse plasma. Using similar dilution protocol, a batch of QC samples for SH-1242 was prepared at concentrations of 1 (LLOQ), 2 (low QC), 40 (mid QC), and 800 ng/mL (high QC) for rat plasma and 2 (LLOQ), 4 (low QC), 40 (mid QC), and 800 ng/mL (high QC) for mouse plasma. Samples were then processed according to the procedure described in Section 3.5.
(§3) The stability of SH-1242 and IS was evaluated under various storage and handling conditions. Stock solutions of SH-1242 and IS at concentrations of 1 mg/mL and 500 ng/mL, respectively, were stored at room temperature (25 °C) for 6 h, under refrigerated conditions (4 °C) for 24 h or 2 weeks, or under two different frozen conditions (−20 °C and −80 °C) for 2 weeks. Solutions of SH-1242 were diluted to 50 ng/mL prior to analysis. In addition, QC samples at three different concentrations (2 or 4 ng/mL, 40 ng/mL, and 800 ng/mL) were prepared and processed. The samples were then placed in various handling conditions (i.e., standing in an autosampler (4 °C for 3 days) or under bench-top condition (25 °C for 24 h), or subjected to three freeze-thaw cycles, or long-term refrigeration (4 °C for 2 weeks)). Mean peak areas of stock solutions were compared with those of fresh stock solutions. For QC samples, the results were compared with nominal concentrations. In this study, analytes were considered stable under test conditions when accuracies at each concentration were within 15% of nominal concentration.

[3] = Pharmacokinetic study after single intravenous administration to mice; format: in vivo; settings: male, ICR, plasma, single intravenous 0.1 mg/kg, representative (one time point per mouse)
Description: as §1

[4] = Stability in stock solutions under typical storage conditions; format: physicochemical; settings: stock solution in methanol (SH-1242 1 mg/mL, IS 500 ng/mL), n = 3
Description: as §2, §3

[5] = tested on: hypoxia-mediated angiogenesis; parameters: method as in PMID 24875598; settings: in vitro model of hypoxia-mediated angiogenesis; cited from earlier work
[6] = Stability of QC samples in mouse plasma under handling and storage conditions; format: in vitro ADME; settings: n = 3; for Accuracy (RE%), freeze-thaw stability / Mean concentration, freeze-thaw stability: 3 freeze-thaw cycles; for Accuracy (RE%), long term stability / Mean concentration, long term stability: 4 °C for 2 weeks; for Accuracy (RE%), autosampler stability / Mean concentration, autosampler stability: processed sample, 4 °C for 3 days; for Accuracy (RE%), benchtop stability / Mean concentration, benchtop stability: room temperature (25 °C) for 24 h
Description: as §2, §3

[7] = parameters: method as in PMID 11320671; settings: rats; cited from earlier work

Which results are given for COc1ccc(CC(=O)c2ccc3c(c2OC)C=CC(C)(C)O3)cc1OC [SH-1242, 2-(3,4-dimethoxyphenyl)-1-(5-methoxy-2,2-dimethyl-2H-chromen-6-yl)ethanone]?
AUC(0-inf) [1]: 55.8 ng·h/mL; MRT [1]: 2.48 h; clearance [1]: 30.5 ± 4.49 mL/min/kg; half-life [1]: 146 ± 59 min; Vd ([1]; read-out: Vss): 4.38 ± 0.716 L/kg; Accuracy (RE%), freeze-thaw stability ([2]; HQC theoretical 800 ng/mL): –2.50%; Mean concentration, freeze-thaw stability ([2]; HQC theoretical 800 ng/mL): 780 ng/mL; Accuracy (RE%), freeze-thaw stability ([2]; LQC theoretical 2 ng/mL): –7.83%; Mean concentration, freeze-thaw stability ([2]; LQC theoretical 2 ng/mL): 1.84 ng/mL; Accuracy (RE%), freeze-thaw stability ([2]; MQC theoretical 40 ng/mL): 4.92%; Mean concentration, freeze-thaw stability ([2]; MQC theoretical 40 ng/mL): 41.97 ng/mL; Accuracy (RE%), long term stability ([2]; HQC theoretical 800 ng/mL): –8.71%; Mean concentration, long term stability ([2]; HQC theoretical 800 ng/mL): 730 ng/mL; Accuracy (RE%), long term stability ([2]; LQC theoretical 2 ng/mL): 0.833%; Mean concentration, long term stability ([2]; LQC theoretical 2 ng/mL): 2.02 ng/mL; Accuracy (RE%), long term stability ([2]; MQC theoretical 40 ng/mL): –6.75%; Mean concentration, long term stability ([2]; MQC theoretical 40 ng/mL): 37.3 ng/mL; Accuracy (RE%), autosampler stability ([2]; HQC theoretical 800 ng/mL): –3.33%; Mean concentration, autosampler stability ([2]; HQC theoretical 800 ng/mL): 773 ng/mL; Accuracy (RE%), autosampler stability ([2]; LQC theoretical 2 ng/mL): –0.167%; Mean concentration, autosampler stability ([2]; LQC theoretical 2 ng/mL): 2.00 ng/mL; Accuracy (RE%), autosampler stability ([2]; MQC theoretical 40 ng/mL): –2.75%; Mean concentration, autosampler stability ([2]; MQC theoretical 40 ng/mL): 38.9 ng/mL; Accuracy (RE%), benchtop stability ([2]; HQC theoretical 800 ng/mL): –7.88%; Mean concentration, benchtop stability ([2]; HQC theoretical 800 ng/mL): 737 ng/mL; Accuracy (RE%), benchtop stability ([2]; LQC theoretical 2 ng/mL): –6.33%; Mean concentration, benchtop stability ([2]; LQC theoretical 2 ng/mL): 1.87 ng/mL; Accuracy (RE%), benchtop stability ([2]; MQC theoretical 40 ng/mL): –6.83%; Mean concentration, benchtop stability ([2]; MQC theoretical 40 ng/mL): 37.3 ng/mL; AUC(0-inf) [3]: 24 ng·h/mL; MRT [3]: 29.6 min; clearance [3]: 69.4 mL/min/kg; half-life [3]: 26.3 min; Vd ([3]; read-out: Vss): 2.06 L/kg; Relative conc. (%) vs initial ([4]; Refrigerated (4 °C, 2 Weeks)): 85.2%; Relative conc. (%) vs initial ([4]; Refrigerated (4 °C, 24 h)): 105%; Relative conc. (%) vs initial ([4]; Refrigerated (−20 °C, 2 Weeks)): 89.1%; Relative conc. (%) vs initial ([4]; Refrigerated (−80 °C, 2 Weeks)): 90.8%; Relative conc. (%) vs initial ([4]; Room Temp. (6 h)): 109%; effective concentration (antiangiogenic activity) [5]: ~10 nM; Accuracy (RE%), freeze-thaw stability ([6]; HQC theoretical 800 ng/mL): 5.00%; Mean concentration, freeze-thaw stability ([6]; HQC theoretical 800 ng/mL): 840 ng/mL; Accuracy (RE%), freeze-thaw stability ([6]; LQC theoretical 4 ng/mL): 11.3%; Mean concentration, freeze-thaw stability ([6]; LQC theoretical 4 ng/mL): 4.45 ng/mL; Accuracy (RE%), freeze-thaw stability ([6]; MQC theoretical 40 ng/mL): 6.00%; Mean concentration, freeze-thaw stability ([6]; MQC theoretical 40 ng/mL): 42.4 ng/mL; Accuracy (RE%), long term stability ([6]; HQC theoretical 800 ng/mL): 8.08%; Mean concentration, long term stability ([6]; HQC theoretical 800 ng/mL): 865 ng/mL; Accuracy (RE%), long term stability ([6]; LQC theoretical 4 ng/mL): –4.08%; Mean concentration, long term stability ([6]; LQC theoretical 4 ng/mL): 3.84 ng/mL; Accuracy (RE%), long term stability ([6]; MQC theoretical 40 ng/mL): 12.0%; Mean concentration, long term stability ([6]; MQC theoretical 40 ng/mL): 44.8 ng/mL; Accuracy (RE%), autosampler stability ([6]; HQC theoretical 800 ng/mL): 7.83%; Mean concentration, autosampler stability ([6]; HQC theoretical 800 ng/mL): 863 ng/mL; Accuracy (RE%), autosampler stability ([6]; LQC theoretical 4 ng/mL): 4.67%; Mean concentration, autosampler stability ([6]; LQC theoretical 4 ng/mL): 4.19 ng/mL; Accuracy (RE%), autosampler stability ([6]; MQC theoretical 40 ng/mL): 6.50%; Mean concentration, autosampler stability ([6]; MQC theoretical 40 ng/mL): 42.6 ng/mL; Accuracy (RE%), benchtop stability ([6]; HQC theoretical 800 ng/mL): 1.25%; Mean concentration, benchtop stability ([6]; HQC theoretical 800 ng/mL): 810 ng/mL; Accuracy (RE%), benchtop stability ([6]; LQC theoretical 4 ng/mL): 5.25%; Mean concentration, benchtop stability ([6]; LQC theoretical 4 ng/mL): 4.21 ng/mL; Accuracy (RE%), benchtop stability ([6]; MQC theoretical 40 ng/mL): 4.25%; Mean concentration, benchtop stability ([6]; MQC theoretical 40 ng/mL): 41.7 ng/mL

With COc1cc2c(cc1OC)[C@@H]1C(=O)c3ccc4c(c3O[C@@H]1CO2)C=CC(C)(C)O4 [deguelin, reference compound] as the compound, how does the CL [7] read?
Its CL is 72.7 mL/min/kg.

What about the Vss [7] of the same compound?
Its Vss is 30.5 L/kg.

What about the “Relative conc. (%) vs initial” value ([4]; Refrigerated (4 °C, 2 Weeks)) of the same compound?
Its value is 92.3%.

What about the “Relative conc. (%) vs initial” value ([4]; Refrigerated (4 °C, 24 h)) of the same compound?
Its value is 105%.

What about the “Relative conc. (%) vs initial” value ([4]; Refrigerated (−20 °C, 2 Weeks)) of the same compound?
The value was 91.4%.

What about the “Relative conc. (%) vs initial” value ([4]; Refrigerated (−80 °C, 2 Weeks)) of the same compound?
Its value is 86.2%.

And the “Relative conc. (%) vs initial” value ([4]; Room Temp. (6 h))?
Its value is 101%.
